Earlier results in patent US20030035834A1, “Sustained release verapamil pharmaceutical composition free of food effect and a method for alleviating food effect in drug release” (priority 2000, published 2003).
Like-named read-outs stand apart in the source and are kept apart here.

## COc1ccc2c3c1O[C@H]1C(=O)CC[C@@]4(O)[C@@H](C2)N(C)CC[C@]314 [oxycodone]
Extended release tablets
  difference in availability, fasted vs fed: no difference
Immediate release aqueous solution
  difference in availability, fasted vs fed: significant difference
